Read-outs that look alike come from different tables or passages of the source.
Assays:
[1] = for AUClast: fed, Day 27 steady state, mean (SD)
Description: Noncompartmental pharmacokinetic (PK) analysis was conducted using Phoenix WinNonlin software (Version 6.4).

[2] = test system: oncogenic signaling proteins in SDHB KD PC12 #5F7 cells; assay: Western blot analysis of oncogenic signaling proteins; type: cell-based, rat
Description: (§1) Cells were extracted from SDH-deficient patient tumor tissues, seeded into 96-well plates, and incubated for 24 hours in GIST culture medium. […] Right panel, Colony formation assay in renal carcinoma cells 7860 (SDHB-wild-type) and OS-RC-2 (SDHB-deficient). Cells were seeded into 6-well plates and incubated overnight in complete culture medium.
Harvested cells treated with dimethyl sulfoxide (DMSO) or indicated concentrations of compounds were lysed in radio-immunoprecipitation (RIPA) buffer (#P0013, Beyotime, China) containing a protease inhibitor cocktail (#20104ES08, Yeasen Biotechnology Co., Ltd., Shanghai) and a phosphatase inhibitor (#20109-A, #20109-B, Yeasen). Equal amounts of protein were separated by 4-20% sodium dodecyl sulfate polyacrylamide gel electrophoresis (SDS-PAGE) and transferred to nitrocellulose membranes. After being blocked with 3% bovine serum, membranes were incubated with primary antibodies, followed by horseradish peroxidase (HRP)-conjugated secondary antibody (#7074, anti-rabbit IgG, CST; #7076, anti-mouse IgG, CST). Finally, bound secondary antibodies were visualized using an ECL Western Blotting Detection Kit (Yeasen). […]

[3] = test system: PC12 or PC12 #5F7 (SDHB KD) cells; assay: Cell death assay (AO/PI staining); type: cell-based, rat; settings: 24 hours exposure; FIG. 2B left
Description: as §1
Rat pheochromocytoma cells (PC12 or PC12 SDHB KD cells PC12 #5F7) were seeded into 24-well plates and incubated overnight in complete culture medium. […] The cell suspension was mixed at a 1:1 ratio with Viastain™ AOPI Staining solution (acridine orange/propidium iodide, #2210170205, Nexelcom Bioscience, Lawrence, MA, USA). After staining, dead cells were counted on a Cellometer® Auto 2000 Cell Counter (Nexelcom).

[4] = test system: SDH-deficient primary GIST cells; assay: Antiproliferation in SDH-deficient primary GIST cells (CellTiter 96 Aqueous assay, 72 hours); type: cell-based, human; settings: all three primary cell lines derived from patients with SDH-deficient GIST
Description: Cells were seeded into 6-well plates and incubated overnight in complete culture medium.
All samples were collected at Sun Yat-sen University Cancer Center with informed consent obtained from each subject. The study, which involved human subjects, was approved by the Medical Ethics Committee of Sun Yat-sen University Cancer Center.
The tissues from GIST patient samples were sustained in Dulbecco's modified Eagle medium (DMEM)/F12 medium containing 1% antibiotic and washed with phosphate-buffered saline (PBS) and then cut into fragments by surgical ophthalmic scissors. The tissues were digested with 1 mg/mL collagenase IV at 37° C. for 30 minutes, followed by filtration of the suspension into single cells with a single-cell strainer centrifugation. […] The procedures were performed as per manufacturers' instructions.

[5] = test system: BCL-XL and MCL-1 protein expression; assay: Mechanism study: BCL-XL and MCL-1 protein expression; type: cell-based; settings: possibly via inhibition of KIT signal pathway and STAT3
Excerpt: Therefore, selective inhibition of BCL-2, aided by TKI-mediated MCL-1 and BCL-XL inhibition, markedly augmented cleavage of caspase-3 and poly(ADP-ribose) polymerase 1 (PARP-1), thus triggering apoptosis and subsequently enhancing antitumor effects.

SDH-deficient GIST = assay: Phase 1 trial HQP1351-SJ-0003: antitumor efficacy per RECIST v1.1 in SDH-deficient GIST subgroup; type: in vivo, human
Excerpt: NCT03594422). The dose escalation aspect of the study enrolled patients with advanced and/or metastatic GIST or other solid tumors that were refractory or had relapsed after treatment with at least one TKI. […] All AEs were graded according to the US National Cancer Institute (NCI) Common Terminology Criteria for Adverse Events (CTCAE; version 4.03). […] Urinalysis, coagulation, cardiac troponin I/T, lipase, amylase, and electrocardiograms were done at baseline; during cycles 1 and 2 (on days 1 and 15); cycle 3, 5, 7, and 9; every 3 cycles after cycle 9 (on day 1); and 14 days after the last dose of treatment. All patients underwent tumor imaging for response assessment via computed tomography or magnetic resonance imaging at screening and every two cycles (8 weeks) until progression or discontinuation. Target and nontarget lesions were assessed per Response Evaluation Criteria in Solid Tumors version 1.1 (RECIST v1.1). CBR was defined as the proportion of patients with a confirmed CR or PR of any duration or SD for at least 16 weeks from the start of treatment (CBR=CR+PR+SD≥16 weeks). ORR was defined as the proportion of patients with a confirmed CR or PR of any duration (ORR=CR+PR). PFS was defined as the time from the start of treatment to the date of first documented disease progression or death due to any cause, whichever occurred first. OS was defined as the time from start of treatment until the date of death. We evaluated antitumor activity in patients from the SDH-deficient GIST population who had at least one postbaseline disease assessment. We used Kaplan-Meier methods to estimate PFS, and OS; corresponding 95% CIs are provided. Efficacy results for patients with SDH-deficient GIST are reported separately. All statistical analyses were performed with SAS (version 9.3 or higher; SAS Institute, Cary, NC).

Cc1ccc(C(=O)Nc2ccc(CN3CCN(C)CC3)c(C(F)(F)F)c2)cc1C#Cc1cnc2[nH]ncc2c1 [Olverembatinib, olverembatinib]
AUClast ([1]; 20 mg QOD oral, 2 subjects): 228 ± 6.4 h*ng/m
AUClast ([1]; 30 mg QOD oral, 4 subjects): 307 ± 121 h*ng/m
AUClast ([1]; 40 mg QOD oral, 15 subjects): 473 ± 177 h*ng/m
AUClast ([1]; 50 mg QOD oral, 3 subjects): 518 ± 174 h*ng/m
accumulation after multiple-dose administration ([1]; 20 to 50 mg QOD): no significant accumulation
dose proportionality of Cmax and AUClast ([1]; dose range of 20 to 50 mg): approximately dose-proportional increase
effect on HIF-1α, HIF-2α, VEGFA, FGFR1, IGF-1R, p-FGFR1, p-IGF-1R, STAT3, p-STAT3, Src and downstream AKT, ERK1/2 ([2]; 24 h treatment, FIG. 2C): dose-dependently inhibited
cleavage of caspase-3 and poly(ADP-ribose) polymerase 1 (apoptosis induction) ([2]; tumor cell lines treated with olverembatinib): Increased cleavage of caspase-3 and poly(ADP-ribose) polymerase 1
cell death activity in SDHB KD versus parental cells [3]: dose-dependently more potent activity in PC12 #5F7 than in parental PC12 cells
potency rank among TKIs [4]: most potent inhibitor
effect on BCL-XL and MCL-1 protein expression [5]: downregulate BCL-XL and MCL-1 protein expression
overall survival rate (SDH-deficient GIST; SDH-deficient GIST cohort at data cut-off): 100%
complete response (CR) (SDH-deficient GIST; SDH-deficient GIST subgroup, 26 evaluable patients): No patient experienced a complete response
confirmed overall responses per RECIST v1.1 (SDH-deficient GIST; SDH-deficient GIST subgroup, median follow-up 17.0 months): 6 of 26 evaluable patients
median progression-free survival (PFS) (SDH-deficient GIST; SDH-deficient GIST, Kaplan-Meier estimate, RECIST v1.1): 25.7 months
